Experimental data as given in patent US20240116892A1, “HETEROCYCLIC AMIDE AND UREA COMPOUNDS AS JAK2 INHIBITORS” (Ajax Therapeutics, Inc., priority 2022, published 2024).

Target: JAK2 (JH1 domain-catalytic, Y1007F, Y1008F) kinase (Homo sapiens (Human), UniProt O60674, Y1007F/Y1008F)
Assay: JAK2 JH1 Domain Binding Assay
Settings: qPCR readout
Summary of the method: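 Competitive binding format: test compound, DNA-tagged JAK2 JH1 (Y1007F/Y1008F; HEK293-expressed NFkB fusion) and ligand-coated magnetic beads incubated 1 h at room temperature. Kinase retained on beads released with 0.5 μmol/L non-biotinylated ligand, then measured by qPCR.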

JAK2 (JH1 domain-catalytic, Y1007F, Y1008F) kinase, sequence (O60674 849-1124 Y1007F/Y1008F): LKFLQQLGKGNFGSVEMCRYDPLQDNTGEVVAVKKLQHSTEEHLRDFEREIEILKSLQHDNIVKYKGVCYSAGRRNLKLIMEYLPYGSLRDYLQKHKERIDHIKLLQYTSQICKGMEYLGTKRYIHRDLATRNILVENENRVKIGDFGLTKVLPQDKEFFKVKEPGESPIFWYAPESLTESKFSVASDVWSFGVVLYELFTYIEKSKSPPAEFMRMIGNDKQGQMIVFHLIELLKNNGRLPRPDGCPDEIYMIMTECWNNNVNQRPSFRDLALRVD

| Kd [nM] | Structure (SMILES) |
| --- | --- |
| < 10 | Cc1n[nH]c2ncc(N3CCC(N(C)C(=O)Nc4cc(C(F)(F)F)cn(C)c4=O)CC3)cc12 [Example I-28, 1-methyl-1-(1-(3-methyl-1H-pyrazolo[3,4-b]pyridin-5-yl)piperidin-4-yl)-3-(1-methyl-2-oxo-5-(trifluoromethyl)-1,2-dihydropyridin-3-yl)urea] |
| < 10 | CN(C(=O)Nc1cc(C(F)(F)F)cn(C)c1=O)[C@@H]1CCN(c2cnc3[nH]ncc3c2)CC1(F)F [Example I-29-a, (R)-1-(3,3-difluoro-1-(1H-pyrazolo[3,4-b]pyridin-5-yl)piperidin-4-yl)-1-methyl-3-(1-methyl-2-oxo-5-(trifluoromethyl)-1,2-dihydropyridin-3-yl)urea] |
| < 10 | CN(C(=O)Nc1cc(C(F)(F)F)cn(C)c1=O)[C@H]1CCN(c2cnc3[nH]ncc3c2)CC1(F)F [Example I-29-b, (S)-1-(3,3-difluoro-1-(1H-pyrazolo[3,4-b]pyridin-5-yl)piperidin-4-yl)-1-methyl-3-(1-methyl-2-oxo-5-(trifluoromethyl)-1,2-dihydropyridin-3-yl)urea] |
| < 10 | Cc1c[nH]c2ncc(N3CCC(N(C)C(=O)Nc4cc(C(F)(F)F)cn(C)c4=O)CC3)nc12 [Example I-30, 1-methyl-3-(1-methyl-2-oxo-5-(trifluoromethyl)-1,2-dihydropyridin-3-yl)-1-(1-(7-methyl-5H-pyrrolo[2,3-b]pyrazin-2-yl)piperidin-4-yl)urea] |
| < 10 | Cc1cc2nc(N3CCC(N(C)C(=O)Nc4cc(C(F)(F)F)cn(C)c4=O)CC3)cnc2[nH]1 [Example I-31, 1-methyl-3-(1-methyl-2-oxo-5-(trifluoromethyl)-1,2-dihydropyridin-3-yl)-1-(1-(6-methyl-5H-pyrrolo[2,3-b]pyrazin-2-yl)piperidin-4-yl)urea] |
| 10 to 50 | CN(C(=O)Nc1cc(C(F)(F)F)cn(C)c1=O)C1CCN(c2cnc3[nH]cnc3c2)CC1 [Example I-38, 1-(1-(3H-imidazo[4,5-b]pyridin-6-yl)piperidin-4-yl)-1-methyl-3-(1-methyl-2-oxo-5-(trifluoromethyl)-1,2-dihydropyridin-3-yl)urea] |
| < 10 | CN(C(=O)Nc1cc(C(F)(F)F)cn(C)c1=O)C1CCN(c2cnc3[nH]cc(F)c3n2)CC1 [Example I-39, 1-(1-(7-fluoro-5H-pyrrolo[2,3-b]pyrazin-2-yl)piperidin-4-yl)-1-methyl-3-(1-methyl-2-oxo-5-(trifluoromethyl)-1,2-dihydropyridin-3-yl)urea] |
| < 10 | CN(C(=O)Nc1cc(C(F)(F)F)cn(C)c1=O)C1CCN(c2cnc3[nH]cc(C4CC4)c3n2)CC1 [Example I-40, 1-(1-(7-cyclopropyl-5H-pyrrolo[2,3-b]pyrazin-2-yl)piperidin-4-yl)-1-methyl-3-(1-methyl-2-oxo-5-(trifluoromethyl)-1,2-dihydropyridin-3-yl)urea] |
| < 10 | CNc1ccnc2c(N3CCC(N(C)C(=O)Nc4cc(C(F)(F)F)cn(C)c4=O)CC3)cnn12 [Example I-42, 1-methyl-3-(1-methyl-2-oxo-5-(trifluoromethyl)-1,2-dihydropyridin-3-yl)-1-(1-(7-(methylamino)pyrazolo[1,5-a]pyrimidin-3-yl)piperidin-4-yl)urea] |
| 10 to 50 | CN(C(=O)Nc1cc(C(F)(F)F)cn(C)c1=O)[C@@H]1C[C@@H]2C[C@H]1CN2c1cnc2[nH]ccc2n1 [Example I-43-a, 1-((1S,4S,5R)-2-(5H-pyrrolo[2,3-b]pyrazin-2-yl)-2-azabicyclo[2.2.1]heptan-5-yl)-1-methyl-3-(1-methyl-2-oxo-5-(trifluoromethyl)-1,2-dihydropyridin-3-yl)urea] |
| 10 to 50 | CN(C(=O)Nc1cc(C(F)(F)F)cn(C)c1=O)[C@H]1C[C@H]2C[C@@H]1CN2c1cnc2[nH]ccc2n1 [Example I-43-b, 1-((1R,4R,5S)-2-(5H-pyrrolo[2,3-b]pyrazin-2-yl)-2-azabicyclo[2.2.1]heptan-5-yl)-1-methyl-3-(1-methyl-2-oxo-5-(trifluoromethyl)-1,2-dihydropyridin-3-yl)urea] |
| < 10 | CN(C)c1n[nH]c2ncc(N3CCC(N(C)C(=O)Nc4cc(C(F)(F)F)cn(C)c4=O)CC3)cc12 [Example I-46, 1-(1-(3-(dimethylamino)-1H-pyrazolo[3,4-b]pyridin-5-yl)piperidin-4-yl)-1-methyl-3-(1-methyl-2-oxo-5-(trifluoromethyl)-1,2-dihydropyridin-3-yl)urea] |
| 10 to 50 | Cn1cc(C(F)(F)F)cc(NC(=O)N2CCCC23CCN(c2cnc4[nH]ccc4n2)CC3)c1=O [Example I-47, N-(1-methyl-2-oxo-5-(trifluoromethyl)-1,2-dihydropyridin-3-yl)-8-(5H-pyrrolo[2,3-b]pyrazin-2-yl)-1,8-diazaspiro[4.5]decane-1-carboxamide] |
| 10 to 50 | CN(C)C(=O)Nc1cnc(N2CCC(N(C)C(=O)Nc3cc(C(F)(F)F)cn(C)c3=O)CC2)cn1 [Example I-48, 1,1-dimethyl-3-(5-(4-(1-methyl-3-(1-methyl-2-oxo-5-(trifluoromethyl)-1,2-dihydropyridin-3-yl)ureido)piperidin-1-yl)pyrazin-2-yl)urea] |
| 10 to 50 | Cn1cc(C(F)(F)F)cc(NC(=O)N2CCCC23CCN(c2cnc4[nH]ncc4c2)CC3)c1=O [Example I-50, N-(1-methyl-2-oxo-5-(trifluoromethyl)-1,2-dihydropyridin-3-yl)-8-(1H-pyrazolo[3,4-b]pyridin-5-yl)-1,8-diazaspiro[4.5]decane-1-carboxamide] |
| 10 to 50 | CN(C(=O)Nc1cc(C(F)(F)F)cn(C)c1=O)C1(C)CCN(c2cnc3[nH]ccc3n2)CC1 [Example I-51, 1-methyl-1-(4-methyl-1-(5H-pyrrolo[2,3-b]pyrazin-2-yl)piperidin-4-yl)-3-(1-methyl-2-oxo-5-(trifluoromethyl)-1,2-dihydropyridin-3-yl)urea] |
| 50 to 1000 | Cn1cc(C(F)(F)F)cc(NC(=O)N2CCCC23CCN(c2cnc4[nH]cc(F)c4n2)CC3)c1=O [Example I-52, 8-(7-fluoro-5H-pyrrolo[2,3-b]pyrazin-2-yl)-N-(1-methyl-2-oxo-5-(trifluoromethyl)-1,2-dihydropyridin-3-yl)-1,8-diazaspiro[4.5]decane-1-carboxamide] |
| < 10 | CN(C(=O)Nc1cc(C(F)(F)F)cn(C)c1=O)C1CC2(C1)CN(c1cnc3[nH]ccc3n1)C2 [Example I-55, 1-(2-(5H-pyrrolo[2,3-b]pyrazin-2-yl)-2-azaspiro[3.3]heptan-6-yl)-1-methyl-3-(1-methyl-2-oxo-5-(trifluoromethyl)-1,2-dihydropyridin-3-yl)urea] |
| 10 to 50 | CN(C(=O)Nc1cc(C(F)(F)F)cn(C)c1=O)C1(C)CCN(c2cnc3[nH]cc(F)c3n2)CC1 [Example I-56, 1-(1-(7-fluoro-5H-pyrrolo[2,3-b]pyrazin-2-yl)-4-methylpiperidin-4-yl)-1-methyl-3-(1-methyl-2-oxo-5-(trifluoromethyl)-1,2-dihydropyridin-3-yl)urea] |
| < 10 | CN(C(=O)Nc1cc(C(F)(F)F)cn(C)c1=O)C1CC2(C1)CN(c1cnc3[nH]ncc3c1)C2 [Example I-57, 1-(2-(1H-pyrazolo[3,4-b]pyridin-5-yl)-2-azaspiro[3.3]heptan-6-yl)-1-methyl-3-(1-methyl-2-oxo-5-(trifluoromethyl)-1,2-dihydropyridin-3-yl)urea] |
| < 10 | C[C@@H]1CN(c2cnc3[nH]ccc3n2)CC[C@@H]1N(C)C(=O)Nc1cc(C(F)(F)F)cn(C)c1=O [Example I-58-a, 1-methyl-1-((3R,4S)-3-methyl-1-(5H-pyrrolo[2,3-b]pyrazin-2-yl)piperidin-4-yl)-3-(1-methyl-2-oxo-5-(trifluoromethyl)-1,2-dihydropyridin-3-yl)urea] |
| < 10 | C[C@H]1CN(c2cnc3[nH]ccc3n2)CC[C@H]1N(C)C(=O)Nc1cc(C(F)(F)F)cn(C)c1=O [Example I-58-b, 1-methyl-1-((3S,4R)-3-methyl-1-(5H-pyrrolo[2,3-b]pyrazin-2-yl)piperidin-4-yl)-3-(1-methyl-2-oxo-5-(trifluoromethyl)-1,2-dihydropyridin-3-yl)urea] |
| < 10 | CN(C(=O)Nc1cc(C(F)(F)F)cn(C)c1=O)C1CCN(c2cnc3[nH]cc(C#N)c3n2)CC1 [Example I-59, 1-(1-(7-cyano-5H-pyrrolo[2,3-b]pyrazin-2-yl)piperidin-4-yl)-1-methyl-3-(1-methyl-2-oxo-5-(trifluoromethyl)-1,2-dihydropyridin-3-yl)urea] |
| < 10 | CN(C(=O)Nc1cc(C(F)(F)F)cn(C)c1=O)[C@@H]1CCN(c2cnc3[nH]ccc3n2)C[C@@H]1F [Example I-64-a, 1-((3S,4R)-3-fluoro-1-(5H-pyrrolo[2,3-b]pyrazin-2-yl)piperidin-4-yl)-1-methyl-3-(1-methyl-2-oxo-5-(trifluoromethyl)-1,2-dihydropyridin-3-yl)urea] |
| < 10 | CN(C(=O)Nc1cc(C(F)(F)F)cn(C)c1=O)[C@H]1CCN(c2cnc3[nH]ccc3n2)C[C@H]1F [Example I-64-b, 1-((3R,4S)-3-fluoro-1-(5HI-pyrrolo[2,3-b]pyrazin-2-yl)piperidin-4-yl)-1-methyl-3-(1-methyl-2-oxo-5-(trifluoromethyl)-1,2-dihydropyridin-3-yl)urea] |
| < 10 | Cn1cc(C(F)(F)F)cc(NC(=O)C2(C3CCN(c4cnc5[nH]cc(F)c5n4)CC3)CC2)c1=O [Example I-65, 1-(1-(7-fluoro-5H-pyrrolo[2,3-b]pyrazin-2-yl)piperidin-4-yl)-N-(1-methyl-2-oxo-5-(trifluoromethyl)-1,2-dihydropyridin-3-yl)cyclopropane-1-carboxamide] |
| < 10 | CN(C(=O)Nc1cc(C(F)(F)F)cn(C)c1=O)C1CCN(c2cnc3sncc3c2)CC1 [Example I-66, 1-(1-(isothiazolo[5,4-b]pyridin-5-yl)piperidin-4-yl)-1-methyl-3-(1-methyl-2-oxo-5-(trifluoromethyl)-1,2-dihydropyridin-3-yl)urea] |
